Measurements as given in US12492173B2, “Herbicidal substituted N-tetrazolyl aryl carboxamides” (Bayer Aktiengesellschaft, priority 2019, dated 2025).

Assays:
Type in all cases: in vivo
Setaria viridis [1] = assay: Post-emergence herbicidal action, SETVI; design: key: % herbicidal action vs untreated; 100 = plants died, 0 = like control; details: post-emergence, dosage 80 g/ha
Method: (§1) [table] 2. Post-Emergence Herbicidal Action Against Harmful Plants Seeds of monocotyledonous and dicotyledonous weed and crop plants are laid out in sandy loam soil in wood-fiber pots, covered with soil and cultivated in a greenhouse under good growth conditions. 2 to 3 weeks after sowing, the test plants are treated at the one-leaf stage. The compounds of the invention, formulated in the form of wettable powders (WP) or as emulsion concentrates (EC), are then sprayed onto the green parts of the plants in the form of an aqueous suspension or emulsion at a water application rate equating to 600 to 800 l/ha, with addition of 0.2% wetting agent. After the test plants have been left to stand in the greenhouse under optimal growth conditions for about 3 weeks, the action of the preparations is assessed visually in comparison to untreated controls (herbicidal action in percent (%): 100% activity=the plants have died, 0% activity=like control plants). […] The tables below illustrate, in an exemplary manner, the post-emergence herbicidal action of the compounds according to the invention, the herbicidal activity being stated in percent. In the experiments that follow, herbicidal action of numerous inventive compounds and the known compounds that are structurally closest from D1 (WO 2012/028579 A1) and D2 (WO 2018/202535 A1) were compared under the above-specified conditions by the pre-emergence and post-emergence method. The example numbers given in the tables relate to the compounds disclosed in the respective documents. In addition to the compounds disclosed in D1 and D2, the following compounds V-1 to V-14 that are encompassed by D1 or D2 but are not compounds specified therein were used in the comparative experiments: • V-1: 2-(methylsulfanyl)-3-(methylsulfinyl)-N-(1-methyl-1H-tetrazol-5-yl)-4-(trifluoromethyl)benzamide • V-2: 2-(methylsulfanyl)-3-(methylsulfonyl)-N-(1-methyl-1H-tetrazol-5-yl)-4-(trifluoromethyl)benzamide • V-3: 2,3-bis(ethylsulfanyl)-N-(1-methyl-1H-tetrazol-5-yl)-4-(trifluoromethyl)benzamide • V-4: 2-chloro-3-(ethylsulfanyl)-N-(1-methyl-1H-tetrazol-5-yl)-4-(trifluoromethyl)benzamide • V-5: 2-chloro-4-iodo-3-(methylsulfanyl)-N-(1-methyl-1H-tetrazol-5-yl)benzamide • V-6: 2-chloro-4-iodo-3-(methylsulfinyl)-N-(1-methyl-1H-tetrazol-5-yl)benzamide • V-7: 2-chloro-4-iodo-3-(methylsulfonyl)-N-(1-methyl-1H-tetrazol-5-yl)benzamide • V-8: 2-bromo-3-(methylsulfanyl)-N-(1-methyl-1H-tetrazol-5-yl)-4-(trifluoromethyl)benzamide • V-9: 2-bromo-3-(methylsulfinyl)-N-(1-methyl-1H-tetrazol-5-yl)-4-(trifluoromethyl)benzamide • V-10: 2-bromo-3-(methylsulfonyl)-N-(1-methyl-1H-tetrazol-5-yl)-4-(trifluoromethyl)benzamide • V-11: 2-bromo-3-(ethylsulfanyl)-N-(1-methyl-1H-tetrazol-5-yl)-4-(trifluoromethyl)benzamide • V-12: 2-bromo-3-(ethylsulfinyl)-N-(1-methyl-1H-tetrazol-5-yl)-4-(trifluoromethyl)benzamide • V-13: 2-bromo-3-(ethylsulfonyl)-N-(1-methyl-1-1H-tetrazol-5-yl)-4-(trifluoromethyl)benzamide • V-14: 2-cyclopropyl-3-(ethylsulfanyl)-N-(1-methyl-1H-tetrazol-5-yl)-4-(trifluoromethyl)benzamide Herbicidal Pre-Emergence Action: […]

Viola tricolor [2] = assay: Post-emergence herbicidal action, VIOTR; design: key: % herbicidal action vs untreated; 100 = plants died, 0 = like control; details: for Herbicidal action against VIOTR: post-emergence, dosage 80 g/ha
Method: as §1

Amaranthus retroflexus [3] = assay: Pre-emergence herbicidal action, AMARE; details: dosage 320 g/ha
Text: (§2) 1. Pre-Emergence Herbicidal Action Against Harmful Plants Seeds of monocotyledonous and dicotyledonous weed plants and crop plants are laid out in sandy loam soil in wood-fiber pots and covered with soil. The compounds of the invention, formulated in the form of wettable powders (WP) or as emulsion concentrates (EC), are then applied to the surface of the covering soil in the form of an aqueous suspension or emulsion at a water application rate equating to 600 to 800 l/ha, with addition of 0.2% wetting agent. After the treatment, the pots are placed in a greenhouse and kept under good growth conditions for the trial plants. The damage to the test plants is scored visually after a test period of 3 weeks by comparison with untreated controls (herbicidal activity in percent (%): 100% activity=the plants have died, 0% activity=like control plants). […] The tables below illustrate, in an exemplary manner, the […] herbicidal action of the compounds according to the invention, the herbicidal activity being stated in percent. [table] In the experiments that follow, herbicidal action of numerous inventive compounds and the known compounds that are structurally closest from D1 (WO 2012/028579 A1) and D2 (WO 2018/202535 A1) were compared under the above-specified conditions by the pre-emergence and post-emergence method. The example numbers given in the tables relate to the compounds disclosed in the respective documents. In addition to the compounds disclosed in D1 and D2, the following compounds V-1 to V-14 that are encompassed by D1 or D2 but are not compounds specified therein were used in the comparative experiments: • V-1: 2-(methylsulfanyl)-3-(methylsulfinyl)-N-(1-methyl-1H-tetrazol-5-yl)-4-(trifluoromethyl)benzamide • V-2: 2-(methylsulfanyl)-3-(methylsulfonyl)-N-(1-methyl-1H-tetrazol-5-yl)-4-(trifluoromethyl)benzamide • V-3: 2,3-bis(ethylsulfanyl)-N-(1-methyl-1H-tetrazol-5-yl)-4-(trifluoromethyl)benzamide • V-4: 2-chloro-3-(ethylsulfanyl)-N-(1-methyl-1H-tetrazol-5-yl)-4-(trifluoromethyl)benzamide • V-5: 2-chloro-4-iodo-3-(methylsulfanyl)-N-(1-methyl-1H-tetrazol-5-yl)benzamide • V-6: 2-chloro-4-iodo-3-(methylsulfinyl)-N-(1-methyl-1H-tetrazol-5-yl)benzamide • V-7: 2-chloro-4-iodo-3-(methylsulfonyl)-N-(1-methyl-1H-tetrazol-5-yl)benzamide • V-8: 2-bromo-3-(methylsulfanyl)-N-(1-methyl-1H-tetrazol-5-yl)-4-(trifluoromethyl)benzamide • V-9: 2-bromo-3-(methylsulfinyl)-N-(1-methyl-1H-tetrazol-5-yl)-4-(trifluoromethyl)benzamide • V-10: 2-bromo-3-(methylsulfonyl)-N-(1-methyl-1H-tetrazol-5-yl)-4-(trifluoromethyl)benzamide • V-11: 2-bromo-3-(ethylsulfanyl)-N-(1-methyl-1H-tetrazol-5-yl)-4-(trifluoromethyl)benzamide • V-12: 2-bromo-3-(ethylsulfinyl)-N-(1-methyl-1H-tetrazol-5-yl)-4-(trifluoromethyl)benzamide • V-13: 2-bromo-3-(ethylsulfonyl)-N-(1-methyl-1-1H-tetrazol-5-yl)-4-(trifluoromethyl)benzamide • V-14: 2-cyclopropyl-3-(ethylsulfanyl)-N-(1-methyl-1H-tetrazol-5-yl)-4-(trifluoromethyl)benzamide Herbicidal Pre-Emergence Action: […]

Abutilon theophrasti [4] = assay: Post-emergence herbicidal action, ABUTH; design: key: % herbicidal action vs untreated; 100 = plants died, 0 = like control; details: for Herbicidal action against ABUTH: post-emergence, dosage 80 g/ha
Method: as §1

Veronica persica [5] = assay: Post-emergence herbicidal action, VERPE; design: key: % herbicidal action vs untreated; 100 = plants died, 0 = like control; details: for Herbicidal action against VERPE: post-emergence, dosage 80 g/ha
Method: as §1

Matricaria inodora [6] = assay: Post-emergence herbicidal action, MATIN; design: key: % herbicidal action vs untreated; 100 = plants died, 0 = like control; details: for Herbicidal action against MATIN: post-emergence, dosage 80 g/ha
Method: as §1

Abutilon theophrasti [7] = assay: Pre-emergence herbicidal action, ABUTH; details: dosage 320 g/ha
Text: as §2

Stellaria media [8] = assay: Pre-emergence herbicidal action, STEME; details: dosage 320 g/ha
Text: as §2

Stellaria media [9] = assay: Post-emergence herbicidal action, STEME; design: key: % herbicidal action vs untreated; 100 = plants died, 0 = like control; details: for Herbicidal action against STEME: post-emergence, dosage 80 g/ha
Method: as §1

Pharbitis purpurea = assay: Post-emergence herbicidal action, PHBPU; details: for Herbicidal action against PHBPU: post-emergence, dosage 80 g/ha
Method: as §1

Amaranthus retroflexus [10] = assay: Post-emergence herbicidal action, AMARE; design: key: % herbicidal action vs untreated; 100 = plants died, 0 = like control; details: for Herbicidal action against AMARE: post-emergence, dosage 80 g/ha
Method: as §1

Echinochloa crus-galli [11] = assay: Post-emergence herbicidal action, ECHCG; design: key: % herbicidal action vs untreated; 100 = plants died, 0 = like control; details: for Herbicidal action against ECHCG: post-emergence, dosage 80 g/ha
Method: as §1

Matricaria inodora [12] = assay: Pre-emergence herbicidal action, MATIN; details: dosage 320 g/ha
Text: as §2

Avena fatua = assay: Post-emergence herbicidal action, AVEFA; design: key: % herbicidal action vs untreated; 100 = plants died, 0 = like control
Method: as §1

Veronica persica [13] = assay: Pre-emergence herbicidal action, VERPE; details: dosage 320 g/ha
Text: as §2

Viola tricolor [14] = assay: Pre-emergence herbicidal action, VIOTR; details: dosage 320 g/ha
Text: as §2

Polygonum convolvulus = assay: Pre-emergence herbicidal action, POLCO; details: dosage 320 g/ha
Text: as §2

Setaria viridis [15] = assay: Pre-emergence herbicidal action, SETVI; details: dosage 320 g/ha
Text: as §2

Echinochloa crus-galli [16] = assay: Pre-emergence herbicidal action, ECHCG; details: dosage 320 g/ha
Text: as §2

SMILES	Herbicidal action against SETVI (Setaria viridis [1])	Herbicidal action against VIOTR (Viola tricolor [2])	herbicidal action AMARE (Amaranthus retroflexus [3]) [%]	Herbicidal action against ABUTH (Abutilon theophrasti [4])	Herbicidal action against VERPE (Veronica persica [5])	Herbicidal action against MATIN (Matricaria inodora [6])	herbicidal action ABUTH (Abutilon theophrasti [7]) [%]	herbicidal action STEME (Stellaria media [8]) [%]	Herbicidal action against STEME (Stellaria media [9])	Herbicidal action against PHBPU (Pharbitis purpurea)	Herbicidal action against AMARE (Amaranthus retroflexus [10])	herbicidal action MATIN (Matricaria inodora [12]) [%]	herbicidal action VERPE (Veronica persica [13]) [%]	Herbicidal action against ECHCG (Echinochloa crus-galli [11])	herbicidal action VIOTR (Viola tricolor [14]) [%]	herbicidal action POLCO (Polygonum convolvulus) [%]	herbicidal action ECHCG (Echinochloa crus-galli [16]) [%]	also measured
Cn1nnnc1NC(=O)c1ccc(C(F)(F)F)c(CS(=O)(=O)CC(F)(F)F)c1Cl [Example 1-313]	80	80	100	100	80	90	100	90	100	90	90	–	–	–	–	–	–	–
CCn1nnnc1NC(=O)c1ccc(S(C)(=O)=O)c(CSC)c1Cl [Example 2-278]	–	–	90	–	–	–	100	–	–	–	–	90	100	–	–	–	–	herbicidal action ECHCG (Echinochloa crus-galli [11]; Dosage 80 g/ha): 100; herbicidal action VIOTR (Viola tricolor [2]; Dosage 80 g/ha): 100; herbicidal action ABUTH (Abutilon theophrasti [4]; Dosage 80 g/ha): 90; herbicidal action VERPE (Veronica persica [5]; Dosage 80 g/ha): 100; herbicidal action MATIN (Matricaria inodora [6]; Dosage 80 g/ha): 90; herbicidal action AVEFA (Avena fatua; Dosage 80 g/ha): 100; herbicidal action STEME (Stellaria media [9]; Dosage 80 g/ha): 80; herbicidal action PHBPU (Pharbitis purpurea; Dosage 80 g/ha): 80; herbicidal action AMARE (Amaranthus retroflexus [10]; Dosage 80 g/ha): 90
CCCn1nnnc1NC(=O)c1ccc(S(C)(=O)=O)c(C[S+](C)[O-])c1C (centres unmarked) [Example 3-38]	80	100	90	90	100	80	–	90	100	–	100	100	100	90	100	80	–	–
CCCn1nnnc1NC(=O)c1ccc(C(F)F)c(C[S+](C)[O-])c1C (centres unmarked) [Example 3-108]	–	100	100	–	100	90	100	–	100	100	80	100	90	80	100	–	90	herbicidal action SETVI (Setaria viridis [15]): 90%; Herbicidal action against AVEFA (Avena fatua; post-emergence, dosage 80 g/ha): 80
CCCn1nnnc1NC(=O)c1ccc(C)c(CS(C)(=O)=O)c1Cl [Example 3-289]	–	–	100	80	90	100	80	–	90	–	90	100	90	90	–	80	100	–
